The values that follow come from patent US20240343727A1, “PYRIDAZINONE OR PYRIDINONE COMPOUNDS, PREPARATION METHODS AND USES THEREOF” (InventisBio Co., Ltd., priority 2021, published 2024).

For this assay, the target named is T1, PARP7 (Homo sapiens, UniProt Q7Z3E1).
T1 sequence (Q7Z3E1 1-657): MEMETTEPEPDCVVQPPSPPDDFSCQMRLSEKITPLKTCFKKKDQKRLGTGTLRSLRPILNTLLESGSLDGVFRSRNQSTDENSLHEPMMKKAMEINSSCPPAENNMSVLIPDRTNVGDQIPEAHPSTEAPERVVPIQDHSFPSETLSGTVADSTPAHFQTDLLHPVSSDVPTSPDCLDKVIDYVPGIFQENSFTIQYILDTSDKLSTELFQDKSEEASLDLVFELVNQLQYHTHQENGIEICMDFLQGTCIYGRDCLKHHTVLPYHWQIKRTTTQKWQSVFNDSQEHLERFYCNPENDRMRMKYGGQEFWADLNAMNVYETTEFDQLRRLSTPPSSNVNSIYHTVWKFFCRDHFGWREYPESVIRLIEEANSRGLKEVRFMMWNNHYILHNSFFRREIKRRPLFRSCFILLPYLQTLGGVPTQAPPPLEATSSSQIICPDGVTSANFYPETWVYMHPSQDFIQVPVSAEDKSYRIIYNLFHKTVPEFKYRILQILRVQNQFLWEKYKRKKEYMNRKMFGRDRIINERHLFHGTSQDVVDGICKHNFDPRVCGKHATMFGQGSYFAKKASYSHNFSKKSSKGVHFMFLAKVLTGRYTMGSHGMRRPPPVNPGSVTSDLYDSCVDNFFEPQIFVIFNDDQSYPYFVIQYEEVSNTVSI
Briefly: PARP7 TR-FRET assay (binding, displacement of biotinylated Probe A). As to conditions: 6 nM PARP7, 2 nM Probe A, 25° C., 30 min. Summed up:
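Compound displacement of biotinylated Probe A (2 nM) from PARP7 (6 nM) measured by TR-FRET in HEPES pH 8.0 buffer, 30 min at 25° C. Detection used ULight-anti 6xHis (4 nM) plus Eu-streptavidin (0.25 nM) for 30 min, reading the 665/615 nm ratio. % inhibition was taken against DMSO and no-enzyme wells, and IC50 from a Hill fit.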
On to `O=C(CC1CN(c2n[nH]c(=O)c3ccc(Cl)cc23)CCO1)N1CCN(c2ncc(C(F)(F)F)cn2)CC1` (single isomer, unassigned) [Compound 100], for which the IC50 was < 100 nM.
With `O=C(c1cccc(Oc2n[nH]c(=O)c(C(F)(F)F)c2N2CC3(CCC3)C2)c1)N1CCN(c2ncc(OC(F)(F)F)cn2)CC1` [Compound 276] the figure was < 100 nM.
The molecule `CCOC1CN(c2c(Oc3cncc(C(=O)N4CCN(c5ncc(C(F)(F)F)cn5)CC4)c3)n[nH]c(=O)c2C(F)(F)F)C1` [Compound 322] gave an IC50 of 100 to 1000 nM.
With `O=C(CC1CN(c2n[nH]c(=O)c3ccc(N4CC(F)(F)C4)cc23)CCO1)N1CCN(c2ncc(C(F)(F)F)cn2)CC1` (single isomer, unassigned) [Compound 220], the IC50 was < 100 nM.
`O=C(CC1CN(c2cc(C(F)(F)F)c(=O)[nH]n2)c2ccccc2O1)N1CCN(c2ccc(C3CC3)cn2)CC1` (single isomer, unassigned) [Compound 285]: the IC50 was < 100 nM.
Consider `C#Cc1c(C)c(N2CCOC(CC(=O)N3CCN(c4ncc(C(F)(F)F)cn4)CC3)C2)n[nH]c1=O` (single isomer, unassigned) [Compound 89], for which the IC50 is < 100 nM.
With `O=C(c1cccc(Oc2n[nH]c(=O)c(C(F)(F)F)c2N2CC3(CCC3)C2)c1)N1CCN(c2ccc(C3CC3)cn2)CC1` [Compound 177] the figure was < 100 nM.
`COC1CN(c2c(Oc3ccnc(C(=O)N4CCN(c5ncc(C(F)(F)F)cn5)[C@H](C)C4)c3)n[nH]c(=O)c2C(F)(F)F)C1` [Compound 342]: the IC50 is < 100 nM.
With `Cc1c(Nc2cccc(C(=O)N3CCN(c4ncc(C(F)(F)F)cn4)CC3)c2)n[nH]c(=O)c1C(F)(F)F` [Compound 76], the IC50 is < 100 nM.
The molecule `O=C(CC1CN(c2cc(C(F)(F)F)c(=O)[nH]n2)c2cc(F)ccc2O1)N1CCN(c2ncc(OC(F)(F)F)cn2)CC1` (single isomer, unassigned) [Compound 312] came in with an IC50 of 100 to 1000 nM.
With `N#CC1(c2ccnc(N3CCN(C(=O)CC4CN(c5cc(C(F)(F)F)c(=O)[nH]n5)c5cc(Cl)ccc5O4)CC3)n2)CC1` (stereo not drawn) [Compound 150] the figure was < 100 nM.
The figure for `N#Cc1ccc(N2CCN(C(=O)[C@@H]3COCCN3c3cc(C(F)(F)F)c(=O)[nH]n3)CC2)nc1` [Compound 37] is < 100 nM; for `C[C@H]1CN(c2cc(C(F)(F)F)c(=O)[nH]n2)C[C@@H](CC(=O)N2CCN(c3ncc(C(F)(F)F)cn3)CC2)O1` (stereo in doubt) [Compound 79] it is < 100 nM; for `C#Cc1cc(N2CCOC(CC(=O)N3CCN(c4ncc(C(F)(F)F)cn4)CC3)C2)n[nH]c1=O` (single isomer, unassigned) [Compound 44] it is 100 to 1000 nM.
Regarding `O=C(CC1CN(c2n[nH]c(=O)c3c(F)cccc23)CCO1)N1CCN(c2ncc(C(F)(F)F)cn2)CC1` (single isomer, unassigned) [Compound 94], the IC50 was < 100 nM.
With `N#Cc1cnc(N2CCN(C(=O)CC3CN(c4cc(C(F)(F)F)c(=O)[nH]n4)c4cc(Cl)ccc4O3)CC2)nc1` (single isomer, unassigned) [Compound 293] the figure was < 100 nM.
With `O=C(CC1CN(c2n[nH]c(=O)c3cc(OCC(F)F)ccc23)CCO1)N1CCN(c2ncc(C(F)(F)F)cn2)CC1` (single isomer, unassigned) [Compound 209], the IC50 is > 1000 nM.
The figure for `O=C(c1cncc(Oc2n[nH]c(=O)c(C(F)(F)F)c2N2CC3(C2)CC(F)(F)C3)c1)N1CCN(c2ccc(C(F)(F)F)cn2)CC1` [Compound 335] is < 100 nM; for `O=C(c1cncc(Oc2n[nH]c(=O)c(C(F)(F)F)c2N2CC3(CCCO3)C2)c1)N1CCN(c2ncc(Cl)cn2)CC1` [Compound 234] it is < 100 nM.
With `COCCNc1c(Oc2cccc(C(=O)N3CCN(c4ncc(C(F)(F)F)cn4)CC3)c2)n[nH]c(=O)c1C(F)(F)F` [Compound 169] the figure was < 100 nM.
Take `O=C(CC1CN(c2cc(C(F)(F)F)c(=O)[nH]n2)c2ccccc2O1)N1CCN(c2ncc(Cl)cn2)CC1` (single isomer, unassigned) [Compound 296]: the IC50 was < 100 nM.
